Reference: patent US5756537A (Parkash S. Gill, M.D., Inc., priority 1996, dated 1998)
Converted amounts (≈) assume the structure as drawn. “Also recorded” adds a separate entry of the source. Like-named read-outs stand apart in the source and are kept apart here.

Assays:
[1] = tested on: ovarian and breast cancer; details: cited from earlier work
bone marrow suppression [2] = assay: G-CSF use in the clinical trial patients
Kaposi's sarcoma [3] = assay: Paclitaxel peak levels, AUC and relation to effect and side effects in KS patients
Description: (§1) This area is calculated using the equation: [formula] where λi is the exponent of the i-th exponential term, and Ci is the initial concentration of the i-th component of the curve. Curve fitting with this model yields the parameters Ci, C2, C3 λ1, λ2 and λ3. The half-lives (t1/2 s) are calculated from the equations t1/2 (α)=0.693/λ1, t1/2 (β)=0.693/λ2 and t1/2 (γ)=0.693/λ3. The total area under the curve (AUC0→.infin.)) is calculated using the linear trapezoidal method with extrapolation of the terminal phase to infinity (Clast /λ3), where Clast is the last measured concentration.
(§2) Typically, maintenance therapy is maintained for a minimum of 3-5 cycles.

[4] = as above; details: human, blood, iv
Description: as §1, §2

Kaposi's sarcoma [5] = assay: Example 4: person with KS; format: in vivo, human
Source text: Due to very extensive disease, a representative area of tumor was monitored.

bone marrow suppression [6] = details: human, in vivo
Kaposi's sarcoma [7] = assay: Example 5: pilot study of ten patients; format: in vivo, human; details: 100 mg/m^2 over 3 hr every 2 weeks
Source text: Seven of these ten patients had previously been treated with one or more previous regimens cytotoxic chemotherapy regimens. All were severely immunodeficient with history of opportunistic infection in six, advanced KS with numerous cutaneous KS lesions, involvement of visceral disease (which is generally fatal) in five.

AIDS-KS [8] = assay: Phase II trial, strata 2 (no prior systemic chemotherapy); format: in vivo, human; details: 100 mg/m^2 iv every 2 weeks
Source text: Strata 2 of the study consisted of 20 patients with advanced AIDS-KS who had not received any prior systemic chemotherapy. The demographic characteristics and the results of treatment are provided below (Table 4-6).

Kaposi's sarcoma [9] = assay: Clinical results with paclitaxel in KS, overall
Description: The mode or route of administration can be parenteral: e.g., intravenous; intraperitoneal; subcutaneous; oral; or topical for cutaneous tumors.
All patients had advanced KS defined by more than 25 cutaneous lesions, or presence of visceral disease, or lymphedema. Other eligibility criteria included adequate hepatic, renal, and bone marrow function defined as a bilirubin<2.0 mg/dl, GOT<x upper limit of normal, creatinine<2.1 mg/dl, granulocytes>1000/mm^3, and platelets>75,000/mm^3. Patients could not have had prior therapy for their KS within the last 2 weeks. The dosage and schedule was 100 mg/m^2 intravenously every 2 weeks.

Kaposi's sarcoma [10] = assay: Example 3: HIV-negative person with KS; format: in vivo, human
Source text: Patient, a very fragile person presented with KS. […] Other medical problems included hypertension, cardiac arrhythmia, congestive heart failure, and hypothyroidism.
Prior therapy included radiation therapy. The radiated areas included both feet and eye lids. […] Cytotoxic chemotherapy was given with combination chemotherapy consisting of bleomycin, vincristine and adriamycin.
Premedication included dexamethasone, diphenhydramine, and cimetidine.

AIDS-KS [11] = tested on: AIDS-KS
Kaposi's sarcoma [12] = details: […]^2 to 175 mg/m^2 over three hours, every 21 days; cited from earlier work
KS Y-1 cells = assay: In vivo KS tumor model in nude mice; set-up: species or system Balbc/nu mouse; details: 10 mg/kg intraperitoneally, days 1, 5 and 9; measured day 14 and 21
Description: FIG. 2. […] Tumor size was measured on days 14 and 21.
KS cell lines that propagate in the immunodeficient mouse were treated with paclitaxel. 1.0×10^7 cells were implanted subcutaneously in each Balbc/nu (Charles River) mouse.

[13] = tested on: AIDS-KS spindle cell lines, KS Y-1 P105; assay: Cell proliferation assay (cell counting, day 5 or 6); format: cell-based
Description: FIG. 1. […] At that time surviving cells were assayed by cell counting.
AIDS-KS spindle cell lines were seeded at a density of 1.0×10^4 cells/well in a 24-well plate in KS medium. […] The cell counts were performed on day 5 or 6 using a Coulter Particulate Counter (Hialeah, Fla.).

[14] = of patients with no G-CSF prior to paclitaxel
[15] = 75 mg/m^2 every two weeks, three hour infusion
[16] = 33 evaluable, 100 mg/m^2 iv every 2 weeks

CC(=O)O[C@H]1C(=O)[C@@]2(C)[C@H]([C@H](OC(=O)c3ccccc3)[C@]3(O)C[C@H](OC(=O)[C@H](O)[C@@H](NC(=O)c4ccccc4)c4ccccc4)C(C)=C1C3(C)C)[C@]1(OC(C)=O)CO[C@@H]1C[C@@H]2O [paclitaxel]
dose generally required to obtain responses ([1]; 3-96 hour infusion, every 3-4 weeks): 175-200 mg/m^2
threshold peak level necessary for pharmaceutical effect ([1]; Wiernak, et al.): 0.1 µM
Any G-CSF use (fraction) (bone marrow suppression [2]; n = 43): 30/43
Never required G-CSF (fraction) (bone marrow suppression [2]; [14]): 13/27
Required G-CSF after start of paclitaxel therapy (fraction) (bone marrow suppression [2]; [14]): 14/27
bone marrow suppression (including neutropenia) (bone marrow suppression [2]; patients who did not require G-CSF): not observed
length of time peak levels are achieved (Kaposi's sarcoma [3]; 50-100 mg/m^2, three hour bolus, would be expected): less than 15 hours
myelosuppression (Kaposi's sarcoma [3]; AUC 1-4 μM/hour, three hour bolus of 50-100 mg/m^2 every 14 days): not observed
unwanted hematological and non-hematological side effects (Kaposi's sarcoma [3]; peak levels maintained at 15 hours or less): absent
neutropenia and other side effects (Kaposi's sarcoma [3]; threshold level 0.1-1 μM for shorter periods, AUC 1-4 μM/hour): reduce neutropenia and other side effects
Cmax [4]: 100 to 1000 nM
KS lesions three months after initiation of the lower dose (Kaposi's sarcoma [5]; 35 mg/m^2 every 2 weeks): completely flat (Clinical Complete Remission)
tolerability (Kaposi's sarcoma [5]; 35 mg/m^2 every 2 weeks): well tolerated, and their hair grew back while on therapy
hair loss (Kaposi's sarcoma [5]; 75 mg/m^2): severe hair loss
response to the first dose (Kaposi's sarcoma [5]; 75 mg/m^2): rapid response
lesion count on the left forearm (Kaposi's sarcoma [5]; after single dose of 75 mg/m^2, 32 lesions prior to paclitaxel): 12 lesions
raised lesions on the left forearm (Kaposi's sarcoma [5]; after single dose of 75 mg/m^2, all 32 raised prior to therapy): two
Any G-CSF use (percent) (bone marrow suppression [6]): 69%
Never required G-CSF (percent) (bone marrow suppression [6]): 48%
patients who did not require G-CSF (bone marrow suppression [6]): approximately 50%
patients with partial or complete response (Kaposi's sarcoma [7]): five of the ten
responses in patients who had previously failed chemotherapy (Kaposi's sarcoma [7]): Responses were observed
responses in patients with otherwise fatal pulmonary disease (Kaposi's sarcoma [7]): Responses were also observed
tolerability (Kaposi's sarcoma [7]): well tolerated
tumor associated edema (Kaposi's sarcoma [7]): resolution of tumor associated edema was observed
Cycles to response, range (AIDS-KS [8]): 3-9 cycles
Median cycles to response (AIDS-KS [8]): 3 cycles
Complete response (count) (AIDS-KS [8]; 19 evaluable): 1
Complete response (percent) (AIDS-KS [8]; 19 evaluable): 5%
Minimal response/stable disease (count) (AIDS-KS [8]; 19 evaluable): 6
Minimal response/stable disease (percent) (AIDS-KS [8]; 19 evaluable): 32%
Partial response (count) (AIDS-KS [8]; 19 evaluable): 12
Partial response (percent) (AIDS-KS [8]; 19 evaluable): 63%
Progression (count) (AIDS-KS [8]; 19 evaluable): 0
Anemia, Grade 2 (count) (AIDS-KS [8]; n = 20): 6
Anemia, Grade 2 (percent) (AIDS-KS [8]; n = 20): 30%
Anemia, Grade 3 (count) (AIDS-KS [8]; n = 20): 0
Anemia, Grade 4 (count) (AIDS-KS [8]; n = 20): 0
Diarrhea, Grade 3 (AIDS-KS [8]; n = 20): 0
Diarrhea, Grade 4 (AIDS-KS [8]; n = 20): 0
Fevers, Grade 3 (AIDS-KS [8]; n = 20): 1
Fevers, Grade 4 (AIDS-KS [8]; n = 20): 0
Myalgia, Grade 3 (AIDS-KS [8]; n = 20): 0
Nausea/Vomiting, Grade 1/2 (AIDS-KS [8]; n = 20): 8
Neuropathy, Grade 3 (AIDS-KS [8]; n = 20): 0
Neuropathy, Grade 4 (AIDS-KS [8]; n = 20): 0
Neutropenia, Grade 2 (count) (AIDS-KS [8]; n = 20): 4
Neutropenia, Grade 2 (percent) (AIDS-KS [8]; n = 20): 20%
Neutropenia, Grade 3 (count) (AIDS-KS [8]; n = 20): 2
Neutropenia, Grade 3 (percent) (AIDS-KS [8]; n = 20): 10%
Neutropenia, Grade 4 (count) (AIDS-KS [8]; n = 20): 3
Neutropenia, Grade 4 (percent) (AIDS-KS [8]; n = 20): 15%
Rash ± Pruritus, Grade 1/2 (AIDS-KS [8]; n = 20): 9
Rash ± Pruritus, Grade 3 (AIDS-KS [8]; n = 20): 0
Thrombocytopenia, Grade 2 (count) (AIDS-KS [8]; n = 20): 0
Thrombocytopenia, Grade 3 (count) (AIDS-KS [8]; n = 20): 0
Thrombocytopenia, Grade 4 (count) (AIDS-KS [8]; n = 20): 0
effectiveness in KS versus other tumors (Kaposi's sarcoma [9]; 100 mg/m^2 every 2 weeks): more effective therapeutically to KS compared to any other tumor studied thus far in the clinic
tolerability (Kaposi's sarcoma [9]; 100 mg/m^2 every 2 weeks): extremely well tolerated
median duration of response (Kaposi's sarcoma [9]; 35-100 mg/m^2 every 10-16 days): greater than 20 weeks
median time to achieve partial response (Kaposi's sarcoma [9]; 35-100 mg/m^2 every 10-16 days): 6-10 weeks
median time to achieve partial response (cycles) (Kaposi's sarcoma [9]; 35-100 mg/m^2 every 10-16 days): 3-5 cycles
side effects (Kaposi's sarcoma [9]; aside from mild to moderate hair loss and occasional other mild toxicities): the lack of side effects is extraordinary
duration of response as reflected by the median number of cycles tolerated, versus all previously studied drugs (Kaposi's sarcoma [9]; compared to all previously studied drugs and combinations): two fold longer
duration of response, range (Kaposi's sarcoma [9]; up to): up to 60 weeks
disease status after one cycle (Kaposi's sarcoma [10]; 35 mg/m^2, after relapse): stable
number of doses to complete tumor resolution (Kaposi's sarcoma [10]; 75 mg/m^2 every two weeks): five
period to complete tumor resolution (Kaposi's sarcoma [10]; 75 mg/m^2 every two weeks): eight
response (Kaposi's sarcoma [10]; [15]): remarkable response with resolution of KS, oozing, foul smell and edema
toxicities experienced (Kaposi's sarcoma [10]; [15]): skin itching and moderate hair loss
bone marrow suppression and neutropenia (Kaposi's sarcoma [10]; 75 mg/m^2 every two weeks, three hour infusion, no G-CSF): lack of bone marrow suppression and accompanying neutropenia
biopsy of the area of skin tumor (Kaposi's sarcoma [10]; after 75 mg/m^2 every two weeks): lack of KS pathologically
remission after the last combination chemotherapy treatment (Kaposi's sarcoma [10]; paclitaxel alone and in combination with liposomally encapsulated doxorubicin for five months): eight
Cycles to response, range (AIDS-KS [11]; 100 mg/m^2 iv every 2 weeks): 3-9 cycles
Median cycles to response (AIDS-KS [11]; 100 mg/m^2 iv every 2 weeks): 5 cycles
median duration of response (AIDS-KS [11]; 100 mg/m^2 iv every 2 weeks): ≥ 5 months
Complete response (count) (AIDS-KS [11]; [16]): 0
Minimal response/stable disease (count) (AIDS-KS [11]; [16]): 12
Minimal response/stable disease (percent) (AIDS-KS [11]; [16]): 34%
Partial response (count) (AIDS-KS [11]; [16]): 23
Partial response (percent) (AIDS-KS [11]; [16]): 66%
Progression (count) (AIDS-KS [11]; [16]): 0
Median Survival (AIDS-KS [11]; not reached): > 6 months
activity in patients with prior systemic chemotherapy (AIDS-KS [11]; preliminary results): confirmed
myelosuppression (Kaposi's sarcoma [12]): increased incidents of myelosuppression
tumor growth (KS Y-1 cells): markedly inhibited
IC50 ([13]; P1(0.5), KS Y-1 P105, treated day 1 and 3, counted day 5 or 6): 2 to 3 ng/mL (≈ 2.34 to 3.51 nM)
sensitivity of KS cells to paclitaxel in vitro ([13]; in vitro): as sensitive to paclitaxel as human ovarian cell lines; also recorded: unusual sensitivity

bleomycin
pneumonitis (Kaposi's sarcoma [10]; combination chemotherapy of bleomycin, vincristine and adriamycin): pneumonitis with bilateral diffuse infiltration
